Test results taken from the supplement of paper PMC10307832.

Columns and labels:
Assay in all cases: relative viability (nuclei count vs DMSO), 5 days (fraction); higher = more cells survive
[1] = compound: CN1C=C(C2=CC=CC=C21)/C=C\3/C4=C(C=CC=N4)NC3=O + CS(=O)(=O)CCNCc1ccc(-c2ccc3ncnc(Nc4ccc(OCc5cccc(F)c5)c(Cl)c4)c3c2)o1 [Lapatinib] (partner 2 µM)
Outline: (§1)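 Relative viability equals treated-well nuclei counts divided by vehicle-well nuclei counts. Counts came from 4× images of lung cancer cell lines grown in 1536-well plates for 5 days after pin-tool dosing on the day after seeding. Dosing used one drug alone or a fixed anchor-drug dose plus five library-drug doses (not always all listed) in √10 steps, and values are medians of duplicate plates.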

[2] = compound: CC(=O)Nc1cccc(-n2c(=O)n(C3CC3)c(=O)c3c(Nc4ccc(I)cc4F)n(C)c(=O)c(C)c32)c1 [Trametinib] + N=C(N)NC(=N)NCCc1ccccc1 [Phenformin] (partner 250 µM)
Outline: as §1

[3] = compound: CN1C=C(C2=CC=CC=C21)/C=C\3/C4=C(C=CC=N4)NC3=O + Cc1cc(Nc2cc(N3CCN(C)CC3)nc(Sc3ccc(NC(=O)C4CC4)cc3)n2)n[nH]1 [Tozasertib] (partner 0.1 µM)
Outline: as §1

[4] = compound: CN1C=C(C2=CC=CC=C21)/C=C\3/C4=C(C=CC=N4)NC3=O
Outline: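 Viability is treated-well nuclei as a fraction of vehicle-well nuclei, reported as the median across plates. Before counting, lung cancer cell lines were kept overnight at 37 °C in 1536-well plates, pinned with five √10-spaced library-drug doses on vehicle-anchored plates, and left 5 days without medium change, then fixed, permeabilised and Hoechst-stained in one step, imaged at 4× and counted by MetaXpress. A plate passed only if control CV was below 25% and at least one doubling occurred.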

Cell Line | relative viability ([1]; first compound 0.02 µM) | relative viability ([1]; first compound 0.06325 µM) | relative viability ([1]; first compound 0.6325 µM) | relative viability ([1]; first compound 2 µM) | relative viability ([2]; first compound 0.0025 µM) | relative viability ([2]; first compound 0.007906 µM) | relative viability ([2]; first compound 0.025 µM) | relative viability ([2]; first compound 0.07906 µM) | relative viability ([2]; first compound 0.25 µM) | relative viability ([3]; first compound 0.02 µM) | relative viability ([3]; first compound 0.06325 µM) | relative viability ([3]; first compound 2 µM) | relative viability ([4]; 0.02 µM) | relative viability ([4]; 0.06325 µM) | relative viability ([4]; 0.6325 µM) | relative viability ([4]; 2 µM) | relative viability ([1]; first compound 0.2 µM) | relative viability ([3]; first compound 0.2 µM) | relative viability ([3]; first compound 0.6325 µM) | relative viability ([4]; 0.2 µM)
NCI-H2228 | 1.24 | 0.88 | 1.02 | 0.972 | 0.319 | 0.225 | 0.152 | 0.161 | 0.138 | 0.15 | 0.223 | 0.192 | 1.05 | 0.856 | 0.864 | 1.14 | – | – | – | –
NCI-H2347 | 0.953 | 1.02 | 0.793 | 0.881 | 0.225 | 0.125 | 0.233 | 0.164 | 0.143 | – | 0.421 | 0.681 | 1.05 | 1.01 | 0.932 | 1.02 | 0.876 | 0.556 | 0.512 | 0.94
NCI-H2405 | 1.03 | 1.02 | 1.06 | 1.03 | 0.326 | 0.316 | 0.28 | 0.202 | 0.251 | 0.742 | 0.717 | 0.731 | 0.987 | 0.959 | 0.966 | 0.961 | 0.749 | 0.67 | 0.721 | 0.715
NCI-H3122 | 0.928 | 0.934 | 1.06 | 1.02 | 0.381 | 0.296 | 0.282 | 0.243 | 0.233 | 0.37 | 0.343 | 0.49 | 0.878 | 0.938 | 1.05 | 0.994 | 0.952 | – | 0.398 | 0.897
PC-3 [JPC-3] | 0.405 | 0.425 | 0.376 | 0.447 | 0.46 | 0.463 | 0.427 | 0.405 | 0.373 | 0.863 | 0.897 | 0.913 | 1.03 | 1.02 | 0.975 | 0.989 | 0.441 | 0.92 | 0.746 | 0.859
PC-14 | 0.262 | 0.289 | 0.275 | 0.315 | 0.568 | 0.531 | 0.322 | 0.212 | 0.102 | 0.564 | 0.525 | 0.541 | 0.944 | 0.943 | 1.01 | 1.05 | 0.256 | 0.585 | 0.553 | 0.926
RERF-LC-KJ | 0.984 | 0.813 | 0.7 | 0.752 | 0.371 | 0.391 | 0.382 | 0.371 | 0.321 | 0.428 | 0.407 | 0.512 | 1 | 1.01 | 0.914 | 0.984 | 0.821 | 0.621 | 0.558 | 1.02
SK-LU-1 | 0.662 | 0.788 | 0.886 | 1.2 | 0.482 | 0.501 | 0.288 | 0.246 | 0.164 | 0.23 | 0.244 | 0.316 | 0.793 | 0.928 | 0.945 | 1.08 | 0.854 | 0.316 | 0.287 | 0.984
SK-MES-1 | 0.451 | 0.427 | 0.454 | 0.428 | 0.64 | 0.64 | 0.481 | 0.43 | 0.287 | 0.945 | 0.749 | 0.886 | 0.967 | 0.959 | 0.929 | 0.967 | 0.447 | 0.917 | 0.874 | 0.951
SW 1573 | 1.17 | 0.905 | 1.07 | 1.18 | 0.29 | 0.279 | 0.255 | 0.156 | 0.15 | 0.161 | 0.209 | 0.193 | 1.07 | 0.968 | 1.05 | 0.971 | 0.921 | 0.19 | 0.156 | 0.994
